Experiments:
Cln2 mRNA = Cln2 mRNA expression by semi-quantitative RT-PCR and real-time PCR in mouse primary astrocytes; assay type: cell-based
Protocol: Astroglia were isolated from mixed glial cultures as described (17,18) according to the procedure of Giulian and Baker (19). Briefly, on day 9, the mixed glial cultures were washed three times with Dulbecco's modified Eagle's medium/F-12 and subjected to shaking at 240 rpm for 2 h at 37° C. on a rotary shaker to remove microglia. After 2 days, the shaking was repeated for 24 h for the removal of oligodendroglia and to ensure the complete removal of all nonastroglial cells. The attached cells were seeded onto new plates for further studies. Total RNA was isolated from mouse primary astrocytes and human primary astrocytes using RNA-Easy Qiagen (Valencia, Calif.) kit following manufactures protocol. Semi-quantitative RT-PCR was carried out as described earlier (24) using oligo (dT) 12-18 as primer and moloney murine leukemia virus reverse transcriptase (MMLV-RT, Invitrogen) in a 20 μl reaction mixture. The resulting cDNA was appropriately amplified using Promega Master Mix (Madison, Wis.) and the following primers (Invitrogen) for murine genes: The mRNA quantification was performed using the ABI-Prism7700 sequence detection system (Applied Biosystems, Foster City, Calif.) using iTaq™ Fast Supermix With ROX (Bio-Rad, Hercules, Calif.) and the following 6-FAM/ZEN/IBFQ-labeled primers for murine genes: Cln2 and Gapdh (Integrated DNA Technologies Coralville, Iowa). The mRNA expression of the targeted genes was normalized to the level of Gapdh mRNA and data was processed by the ABI Sequence Detection System 1.6 software.

TPP1 = test: Western blot and densitometric analysis of TPP1 in mouse primary astrocytes; assay type: cell-based
Protocol: Astroglia were isolated from mixed glial cultures as described (17,18) according to the procedure of Giulian and Baker (19). Briefly, on day 9, the mixed glial cultures were washed three times with Dulbecco's modified Eagle's medium/F-12 and subjected to shaking at 240 rpm for 2 h at 37° C. on a rotary shaker to remove microglia. After 2 days, the shaking was repeated for 24 h for the removal of oligodendroglia and to ensure the complete removal of all nonastroglial cells. The attached cells were seeded onto new plates for further studies.
Western blotting was conducted as described earlier (27,28) with modifications. Briefly, cells were scraped in double-distilled H20 and sodium dodecyl sulfate (SDS), electrophoresed on NuPAGE® Novex® 4-12% Bis-Tris gels (Invitrogen) and proteins transferred onto a nitrocellulose membrane (Bio-Rad) using the Thermo-Pierce Fast Semi-Dry Blotter. The membrane was then washed for 15 min in TBS plus Tween 20 (TBST) and blocked for 1 hr in TBST containing BSA. Next, membranes were incubated overnight at 4° C. under shaking conditions with the following 1° antibodies; TPP1 (1:250, Santa Cruz), β-actin (1:800; Abcam, Cambridge, Mass. The next day, membranes were washed in TBST for 1 hr, incubated in 2° antibodies against 1° antibody hosts (all 1:10,000; Jackson ImmunoResearch) for 1 hr at room temperature, washed for one more hour and visualized under the Odyssey® Infrared Imaging System (Li-COR, Lincoln, Nebr.).
Protein blots were analyzed using ImageJ (NIH, Bethesda, Md.) and bands were normalized to their respective β-actin loading controls. Data are representative of the average fold change with respect to control for three independent experiments.

CC1=C(/C=C/C(C)=C/C=C/C(C)=C/C(=O)O)C(C)(C)CCC1 [RA, all-trans retinoic acid]
Cln2 level (quantitative real time PCR) (Cln2 mRNA; astrocytes with RXRα knockdown (RXRα siRNA), gemfibrozil (10 μM), RA (0.5 μM) alone and in combination): almost unresponsive
increase in Cln2 mRNA levels (quantitative real time PCR) (Cln2 mRNA; mouse primary astrocytes, 24 hrs, RA 0.5 μM, gemfibrozil 10 μM, combination 10 μM gemfibrozil and 0.5 μM RA): about 3.5 fold
induction of TPP1 (immunoblot) (TPP1; PPARα−/− astrocytes, RA (0.5 μM) and combination of gemfibrozil (10 μM) and RA (0.5 μM)): neither RA alone nor the combination could induce TPP1
TPP1 levels (Western blot, densitometric analysis) (TPP1; RXRα siRNA transfected astrocytes, gemfibrozil (10 μM), RA (0.5 μM) alone and in combination): almost no enhancement
